Entries after “also recorded” stand apart in the source; their conditions may differ. Starred links: 1 amine or outer side, 2 acyl side, 3 side chain; linkers in the order of their positions; H or OH if unused. Positions of bridges follow the written chain, without caps; N, C: chain ends. Non-standard residues stand in square brackets, D forms with d. Residues, ends and D or L forms follow the SMILES beside them. *: point of attachment. X2 = C[C@H](Oc1ccc([C@H](N[*:1])C(=O)[*:2])cc1)[C@@]1(/C=C/C(=O)[*:3])CO1; X1 = CC(C)[C@H](O)[C@H](C)C(=O)*; aIle = CC[C@@H](C)[C@H](N)C(=O)O; dNMeF = CN[C@H](Cc1ccccc1)C(=O)O; aThr = C[C@H](O)[C@H](N)C(=O)O
Assays:
E. coli D21f2tolC = assay: Spontaneous resistance frequency by plating on LB agar containing inhibitor; type: cell-based, Escherichia coli
Excerpt: Sal-Resistant Mutants Map to RNAP-Subunit Genes. To determine whether Sal kills bacteria by inhibiting RNAP, spontaneous Sal-resistant mutants were isolated, and genes for RNAP subunits in Sal-resistant mutants were PCR-amplified and sequenced (FIG. 3A). Spontaneous Sal-resistant mutants were isolated by plating high-density cultures of E. coli D21f2tolC (˜3×10^9 cells per plate) on agar containing Sal and identifying rare resistant colonies (FIG. 3B). For each Sal-resistant mutant, genomic DNA was prepared, and the genes for the largest RNAP subunit and the second-largest RNAP subunit—rpoC encoding RNAP β′ subunit and rpoB encoding RNAP β subunit were PCR-amplified and sequenced (FIG. 3C).
Co-Administration of Sal and Rifampin Reduces Spontaneous Resistance to Undetectable Levels.
Co-Administration of Sal and CBR703 Reduces Spontaneous Resistance to Undetectable Levels.
(§1) Isolation of Sal-Resistant Mutants: Spontaneous Sal-Resistant Mutants. E. coli D21f2tolC (6) was cultured to saturation in 5 ml LB broth (7) at 37° C., cultures were centrifuged, and cell pellets (˜3×10^9 cells) were re-suspended in 50 μl LB broth and plated on LB agar (7) containing 1.2 μg/ml Sal (a concentration four times the minimal concentration required to prevent growth of wild-type cells under these conditions), and incubated 24-48 h at 37° C. Sal-resistant mutants were identified by the ability to form colonies on this medium and were confirmed by re-streaking on the same medium.

[1] = tested on: Sal-resistant mutants of E. coli D21f2tolC (rpoC / rpoB substitutions); assay: Broth microdilution resistance / cross-resistance levels of spontaneous Sal-resistant mutants; type: cell-based, Escherichia coli
Description: as §1
(§2) Quantitation of Resistance to Sal. Resistance to Sal was quantified by performing broth microdilution assays. Single colonies were inoculated into 3 ml LB broth, and incubated 3-6 h at 37° C. with shaking. Diluted aliquots (2×10^4 cells in 98 μl LB broth; concentrations determined using OD600=1 for 10^9 cells) were dispensed into wells of a 96-well plate, were supplemented with 2 μl of a 2-fold dilution series of Sal in methanol (final concentrations of […], 0.390, 0.195, 0.0975, 0.0488, 0.0244, 0.0122, and 0.00609 μg/ml) or 2 μl of a solvent blank, and were incubated 16 h at 37° C. with shaking. The minimum inhibitory concentration (MIC) was defined as the lowest tested concentration of Sal that inhibited bacterial growth by 95%.
Quantitation of Cross-Resistance to Rifampin and CBR703. Cross-resistance levels were determined analogously to resistance levels, using 0.12-0.78 μg/ml of rifampin (Sigma, Inc.) and 0.39-25 μg/ml of CBR703 (Maybridge, Inc.).

[2] = tested on: D21f2tolC pRL663 and D21f2tolC pRL706 derivatives; assay: Broth microdilution resistance levels of induced Sal-resistant mutants (plasmid-borne rpoC / rpoB); type: cell-based, Escherichia coli; conditions: for resistance level (MIC/MICwild-type): induced mutant
Description: Isolation of Sal-Resistant Mutants: Induced Sal-Resistant Mutants. E. coli Random mutagenesis of rpoC in plasmid pRL663 and rpoB in plasmid pRL706 was performed as in 24, mutagenenized plasmids were passaged in E. coli XL1-Blue (Stratgene, Inc.) as in 24, mutagenized plasmids were introduced by transformation into E. coli D21f2tolC as in 24, and transformants (˜1×10^4 cells) were applied to LB-agar plates containing 1 μg/ml Sal, 200 μg/ml ampicillin, and 1 mM IPTG, and plates were incubated 16-24 h at 37° C. Sal-resistant mutants were identified by the ability to form colonies on this medium and were confirmed by re-streaking on the same medium.
as §2

[3] = tested on: Derivatives of E. coli D21f2tolC containing rifamycin-resistant rpoB mutations; assay: Broth microdilution cross-resistance of rifamycin-resistant mutants to Sal; type: cell-based, Escherichia coli
[4] = target: bacterial RNA polymerase (RNAP) (Escherichia coli, UniProt P0A8T7+P0A8V2); conditions: in vitro; reference 4; read-out: IC50, inhibition of bacterial RNA polymerase in vitro; cited from earlier work
Sequence of bacterial RNA polymerase (RNAP) (P0A8V2 whole entry): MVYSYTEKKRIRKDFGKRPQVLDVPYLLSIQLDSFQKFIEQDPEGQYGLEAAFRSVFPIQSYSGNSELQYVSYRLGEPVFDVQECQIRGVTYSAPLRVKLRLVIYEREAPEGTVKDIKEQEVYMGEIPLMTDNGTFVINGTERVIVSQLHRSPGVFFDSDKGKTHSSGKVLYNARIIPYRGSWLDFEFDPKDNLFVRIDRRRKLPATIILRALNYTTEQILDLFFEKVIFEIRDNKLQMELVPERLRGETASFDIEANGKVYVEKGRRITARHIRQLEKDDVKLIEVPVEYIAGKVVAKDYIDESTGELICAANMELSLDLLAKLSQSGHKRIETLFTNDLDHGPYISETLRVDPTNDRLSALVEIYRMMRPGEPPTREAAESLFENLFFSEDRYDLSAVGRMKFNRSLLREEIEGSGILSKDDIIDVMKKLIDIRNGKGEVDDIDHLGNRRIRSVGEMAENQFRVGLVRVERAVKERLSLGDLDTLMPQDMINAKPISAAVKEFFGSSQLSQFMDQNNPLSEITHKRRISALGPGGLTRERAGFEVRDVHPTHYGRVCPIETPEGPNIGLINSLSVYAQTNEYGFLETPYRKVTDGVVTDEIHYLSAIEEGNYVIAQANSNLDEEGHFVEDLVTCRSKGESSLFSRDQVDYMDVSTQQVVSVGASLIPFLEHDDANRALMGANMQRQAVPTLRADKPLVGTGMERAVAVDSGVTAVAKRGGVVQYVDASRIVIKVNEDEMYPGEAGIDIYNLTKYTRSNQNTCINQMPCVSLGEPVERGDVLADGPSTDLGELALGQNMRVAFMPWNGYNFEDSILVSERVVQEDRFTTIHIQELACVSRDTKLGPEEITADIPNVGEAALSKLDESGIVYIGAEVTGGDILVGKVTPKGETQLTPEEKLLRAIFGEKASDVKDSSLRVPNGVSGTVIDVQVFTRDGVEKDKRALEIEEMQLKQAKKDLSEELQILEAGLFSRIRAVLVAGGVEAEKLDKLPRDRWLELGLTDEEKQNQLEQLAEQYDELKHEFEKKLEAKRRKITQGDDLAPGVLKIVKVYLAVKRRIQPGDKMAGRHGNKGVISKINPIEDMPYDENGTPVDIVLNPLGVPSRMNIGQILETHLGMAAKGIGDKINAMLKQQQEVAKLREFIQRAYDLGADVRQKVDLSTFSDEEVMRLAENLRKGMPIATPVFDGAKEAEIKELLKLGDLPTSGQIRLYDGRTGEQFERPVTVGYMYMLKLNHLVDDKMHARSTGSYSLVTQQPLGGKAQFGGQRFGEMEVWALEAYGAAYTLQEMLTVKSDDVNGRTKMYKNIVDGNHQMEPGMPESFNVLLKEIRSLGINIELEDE
Sequence of bacterial RNA polymerase (RNAP) (P0A8T7 whole entry): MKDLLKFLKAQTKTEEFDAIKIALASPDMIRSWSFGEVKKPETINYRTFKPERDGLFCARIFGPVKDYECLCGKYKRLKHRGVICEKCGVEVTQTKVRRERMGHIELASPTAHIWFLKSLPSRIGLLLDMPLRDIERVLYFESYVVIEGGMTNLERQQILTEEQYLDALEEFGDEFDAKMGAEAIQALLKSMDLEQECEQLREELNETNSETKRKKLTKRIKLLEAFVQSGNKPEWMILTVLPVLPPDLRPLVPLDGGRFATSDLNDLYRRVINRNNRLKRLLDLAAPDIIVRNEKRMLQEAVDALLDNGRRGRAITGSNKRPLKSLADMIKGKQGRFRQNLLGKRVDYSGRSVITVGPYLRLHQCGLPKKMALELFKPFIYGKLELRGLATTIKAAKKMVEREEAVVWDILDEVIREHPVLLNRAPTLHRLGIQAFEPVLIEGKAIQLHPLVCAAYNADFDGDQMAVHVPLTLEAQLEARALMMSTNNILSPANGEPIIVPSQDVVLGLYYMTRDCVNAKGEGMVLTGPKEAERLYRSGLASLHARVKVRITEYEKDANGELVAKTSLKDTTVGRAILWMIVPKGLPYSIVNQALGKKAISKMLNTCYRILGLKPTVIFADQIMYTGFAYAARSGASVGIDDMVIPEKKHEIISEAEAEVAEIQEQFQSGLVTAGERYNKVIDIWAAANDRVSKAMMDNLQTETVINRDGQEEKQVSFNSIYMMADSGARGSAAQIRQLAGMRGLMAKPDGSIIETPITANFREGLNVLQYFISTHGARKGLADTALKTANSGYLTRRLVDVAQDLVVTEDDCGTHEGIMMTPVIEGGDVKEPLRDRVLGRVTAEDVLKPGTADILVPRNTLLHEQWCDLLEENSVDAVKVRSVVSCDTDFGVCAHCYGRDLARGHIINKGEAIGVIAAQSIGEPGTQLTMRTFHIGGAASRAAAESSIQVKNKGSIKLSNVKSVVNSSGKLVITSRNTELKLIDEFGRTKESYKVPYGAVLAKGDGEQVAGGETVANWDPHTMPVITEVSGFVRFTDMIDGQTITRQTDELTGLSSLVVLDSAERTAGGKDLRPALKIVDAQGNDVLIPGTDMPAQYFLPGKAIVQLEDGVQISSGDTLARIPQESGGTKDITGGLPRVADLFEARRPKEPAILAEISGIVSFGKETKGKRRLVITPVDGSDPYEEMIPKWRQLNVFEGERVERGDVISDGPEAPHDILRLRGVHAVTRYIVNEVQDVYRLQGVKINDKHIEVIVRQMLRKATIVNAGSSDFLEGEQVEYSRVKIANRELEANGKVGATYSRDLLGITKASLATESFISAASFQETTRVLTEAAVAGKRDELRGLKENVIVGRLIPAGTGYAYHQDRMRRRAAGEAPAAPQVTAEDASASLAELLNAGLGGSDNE
Sequence of bacterial RNA polymerase (RNAP) (P0A7Z4 whole entry, further chain): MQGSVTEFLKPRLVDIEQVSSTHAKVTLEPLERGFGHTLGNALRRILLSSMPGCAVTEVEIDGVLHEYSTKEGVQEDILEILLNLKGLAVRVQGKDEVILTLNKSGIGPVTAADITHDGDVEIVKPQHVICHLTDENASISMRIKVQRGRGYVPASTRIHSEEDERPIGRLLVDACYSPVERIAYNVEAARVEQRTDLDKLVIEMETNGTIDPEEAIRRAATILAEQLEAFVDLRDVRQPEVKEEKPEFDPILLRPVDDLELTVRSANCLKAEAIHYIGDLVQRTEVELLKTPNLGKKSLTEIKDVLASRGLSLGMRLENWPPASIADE

Streptococcus pneumoniae = conditions: references 1, 2; cited from earlier work
S. pyogenes = conditions: references 1, 2; cited from earlier work
[5] = rpoC (RNAP β′ subunit) 780 Arg→Cys

## CC[C@@H](C)[C@@H]1NC(=O)[C@H](NC(=O)[C@@H](C)[C@@H](O)C(C)C)[C@H](C)OC(=O)[C@H]2COC(=O)CNC(=O)/C=C/[C@@]3(CO3)[C@H](C)Oc3ccc(cc3)[C@H](NC1=O)C(=O)N(C)[C@H](Cc1ccccc1)C(=O)N[C@@H]([C@H](C)O)C(=O)N2 [Sal, salinamide A] (X1-[dT][aIle][X2][dNMeF][aThr][dS]; ester 1-C; linker 3-6 via G)
E. coli D21f2tolC; LB agar, each compound at 4×MIC, colonies counted after 24 h at 37° C.
  spontaneous resistance frequency: 4×10^−9
E. coli D21f2tolC; ~3×10^9 cells per plate, LB agar with 1.2 μg/ml Sal, 24-48 h at 37° C.
  frequency of spontaneous mutation to Sal-resistance: ~4 × 10^−9
[1]; all analyzed Sal-resistant mutants (Tables 2, 3)
  resistance to Sal, all analyzed mutants: at least 2 fold
[1]; rpoB (RNAP β subunit) 569 Ile→Ser
  resistance level (MIC/MICwild-type): >16
[1]; rpoB (RNAP β subunit) 675 Asp→Ala
  resistance level (MIC/MICwild-type): >16
[1]; rpoB (RNAP β subunit) 677 Asn→His
  resistance level (MIC/MICwild-type): >16
[1]; rpoB (RNAP β subunit) 677 Asn→Lys
  resistance level (MIC/MICwild-type): >16
[1]; rpoC (RNAP β′ subunit) 690 Asn→Asp
  resistance level (MIC/MICwild-type): 16
[1]; rpoC (RNAP β′ subunit) 697 Met→Val (one isolate also 1054 Thr→Ala)
  resistance level (MIC/MICwild-type): >16
[1]; rpoC (RNAP β′ subunit) 738 Arg→Cys
  resistance level (MIC/MICwild-type): >16
[1]; rpoC (RNAP β′ subunit) 738 Arg→His
  resistance level (MIC/MICwild-type): >16
[1]; rpoC (RNAP β′ subunit) 738 Arg→Pro
  resistance level (MIC/MICwild-type): >16
[1]; rpoC (RNAP β′ subunit) 738 Arg→Ser
  resistance level (MIC/MICwild-type): >16
[1]; rpoC (RNAP β′ subunit) 748 Ala→Glu
  resistance level (MIC/MICwild-type): 16
[1]; rpoC (RNAP β′ subunit) 758 Pro→Ser
  resistance level (MIC/MICwild-type): 16
[1]; rpoC (RNAP β′ subunit) 763 Phe→Cys
  resistance level (MIC/MICwild-type): 16
[1]; rpoC (RNAP β′ subunit) 775 Ser→Ala
  resistance level (MIC/MICwild-type): 8
[1]; rpoC (RNAP β′ subunit) 779 Ala→Thr
  resistance level (MIC/MICwild-type): >16
[1]; rpoC (RNAP β′ subunit) 779 Ala→Val
  resistance level (MIC/MICwild-type): >16
[1]; [5]
  resistance level (MIC/MICwild-type): >16
[1]; rpoC (RNAP β′ subunit) 783 Leu→Arg
  resistance level (MIC/MICwild-type): >16
[1]; thirteen of the Sal-resistant mutants
  resistance to Sal, thirteen mutants: > 16 fold
[2]; D21f2tolC pRL663 and D21f2tolC pRL706 derivatives, wild-type plasmid genes
  MIC with wild-type rpoC and wild-type rpoB: ^aAssayed as D21f2tolC pRL663 and D21f2tolC pRL706 derivatives; MIC with wild-type rpoC and wild-type rpoB was 0.098 μg/ml.
[2]; rpoB (RNAP β subunit) 561 Ile→Ser
  resistance level (MIC/MICwild-type): 2
[2]; rpoB (RNAP β subunit) 665 Ala→Glu
  resistance level (MIC/MICwild-type): 8
[2]; rpoB (RNAP β subunit) 680 Leu→Met
  resistance level (MIC/MICwild-type): 4
[2]; rpoC (RNAP β′ subunit) 758 Pro→Thr
  resistance level (MIC/MICwild-type): 4
[2]; [5]
  resistance level (MIC/MICwild-type): 8
[2]; rpoC (RNAP β′ subunit) 782 Gly→Cys
  resistance level (MIC/MICwild-type): 8
[3]; rifampin-resistant mutant rpoB (RNAP β subunit) 516 Asp→Val
  cross-resistance level (MIC/MICwild-type): 1
[3]; rifampin-resistant mutant rpoB (RNAP β subunit) 526 His→Asp
  cross-resistance level (MIC/MICwild-type): 1
[3]; rifampin-resistant mutant rpoB (RNAP β subunit) 526 His→Tyr
  cross-resistance level (MIC/MICwild-type): 1
[3]; rifampin-resistant mutant rpoB (RNAP β subunit) 531 Ser→Leu
  cross-resistance level (MIC/MICwild-type): 1
[3]; β Asp516→Val, His526→Asp, His526→Tyr, Ser531→Leu mutants (Table 5)
  cross-resistance of rifamycin-resistant mutants (in words): not cross-resistant; also recorded: no cross-resistance
[4]
  IC50: 500 nM
Streptococcus pneumoniae
  antibacterial activity: exhibits antibacterial activity
S. pyogenes
  antibacterial activity: exhibits antibacterial activity
